Results on 13 compounds are retold here after US20080051387A1, “TETRAHYDROPYRIDO[3,4-D]PYRIMIDINES AND RELATED ANALOGUES” (priority 2006, published 2008).

This experiment addresses T1, chimeric human H3 receptor (Homo sapiens, UniProt Q9Y5N1).
T1 construct: rat Galpha-i2 (Gnai2, rat); made in house; host or cells: Sf9 insect cells (baculovirus); P2 membranes
Briefly: Chimeric human H3 receptor screening GTP binding assay (inhibition of histamine-stimulated GTP-gamma35S binding, Example 8). It counts as biochemical. A digest of the protocol: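 Compound tested at 4 μM against 1 μM histamine stimulation; 125 pM GTP-gamma35S binding measured by filtration and scintillation after 60 min at room temperature. Membranes from Sf9 cells expressing chimeric human H3 plus G-protein subunits, in Tris pH 7.4/NaCl/MgCl2/GDP buffer; values are % inhibition after nonspecific subtraction.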

Setting [1] is: 1 h, assay described in Example 8, symbol "!" in column headed Ki, read-out: Ki ("!": percent inhibition of agonist-induced GTP-gammaS binding to H3).
The mark [2] stands for this setting: symbol ! in Ki, test compound 4 μM, 1 μM histamine, read-out: percent inhibition of agonist-induced GTP-gammaS binding to H3.
Where [3] appears, read: 1 h, assay of Example 8, symbol "!" in column headed Ki, read-out: percent inhibition of agonist-induced GTP-gammaS binding to H3.

Where two headings read alike, the source gives them in different places.

T1 sequence (Q9Y5N1 with tags, fused parts or gaps): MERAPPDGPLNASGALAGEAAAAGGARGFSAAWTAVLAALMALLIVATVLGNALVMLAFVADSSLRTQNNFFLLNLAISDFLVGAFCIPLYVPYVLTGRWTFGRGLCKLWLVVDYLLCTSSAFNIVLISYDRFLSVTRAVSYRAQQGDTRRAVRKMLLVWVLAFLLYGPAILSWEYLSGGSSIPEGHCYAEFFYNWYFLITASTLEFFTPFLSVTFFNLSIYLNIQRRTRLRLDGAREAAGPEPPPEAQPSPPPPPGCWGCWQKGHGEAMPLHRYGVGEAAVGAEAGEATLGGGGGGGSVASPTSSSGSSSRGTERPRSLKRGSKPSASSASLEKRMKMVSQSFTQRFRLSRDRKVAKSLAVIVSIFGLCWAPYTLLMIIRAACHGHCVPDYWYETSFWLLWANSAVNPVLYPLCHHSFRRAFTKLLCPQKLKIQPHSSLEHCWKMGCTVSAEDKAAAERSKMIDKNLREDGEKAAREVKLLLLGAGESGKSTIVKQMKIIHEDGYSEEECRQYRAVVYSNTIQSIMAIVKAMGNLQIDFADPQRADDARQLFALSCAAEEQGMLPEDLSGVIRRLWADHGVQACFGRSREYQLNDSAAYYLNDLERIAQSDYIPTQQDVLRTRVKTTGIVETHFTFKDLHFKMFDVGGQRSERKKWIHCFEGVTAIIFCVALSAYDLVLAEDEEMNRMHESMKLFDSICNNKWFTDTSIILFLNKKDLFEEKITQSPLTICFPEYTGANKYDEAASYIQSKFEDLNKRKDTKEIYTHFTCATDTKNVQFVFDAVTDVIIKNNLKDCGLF

For `Cn1nc(C(C)(C)C)cc1C(=O)N1CCc2cnc(N3CCN(C4CCC4)CC3)nc2CC1` [Compound 506, 7-[(3-tert-butyl-1-methyl-1H-pyrazol-5-yl)carbonyl]-2-(4-cyclobutylpiperazin-1-yl)-6,7,8,9-tetrahydro-5H-pyrimido[4,5-d]azepine], the inhibition at 4 µM under setting [1] was not below 90%. On to `O=C(CC1CCCCC1)N1CCc2c(ncnc2N2CCN(C3CCC3)CC2)C1` [Compound 48, 4-(4-cyclobutylpiperazin-1-yl)-7-(cyclohexylacetyl)-5,6,7,8-tetrahydropyrido[3,4-d]pyrimidine], for which, under setting [2], the inhibition at 4 µM is not below 90%. As for `CNc1ccccc1C(=O)N1CCc2cnc(N3CCN(C4CCC4)CC3)nc2CC1` [Compound 534, 2-{[2-(4-cyclobutylpiperazin-1-yl)-5,6,8,9-tetrahydro-7H-pyrimido[4,5-d]azepin-7-yl]carbonyl}-N-methylaniline], the inhibition at 4 µM under setting [1] was not below 90%.

Take `c1ccc(CN2CCc3ncnc(N4CCN(C5CCCC5)CC4)c3C2)cc1` [Compound 141, 6-benzyl-4-(4-cyclopentylpiperazin-1-yl)-5,6,7,8-tetrahydropyrido[4,3-d]pyrimidine]: the inhibition at 4 µM under setting [2] was not below 90%. `O=C(Cc1ccc(C(F)(F)F)cc1)N1CCc2cnc(N3CCN(C4CCC4)CC3)nc2CC1` [Compound 287, 2-(4-cyclobutylpiperazin-1-yl)-7-{[4-(trifluoromethyl)phenyl]acetyl}-6,7,8,9-tetrahydro-5H-pyrimido[4,5-d]azepine]: the inhibition at 4 µM under setting [3] is not below 90%.

Consider `Cc1cc(C(=O)N2CCc3cnc(N4CCN(C5CCC5)CC4)nc3CC2)ccc1Cl` [Compound 395, 7-(4-chloro-3-methylbenzoyl)-2-(4-cyclobutylpiperazin-1-yl)-6,7,8,9-tetrahydro-5H-pyrimido[4,5-d]azepine], for which the inhibition at 4 µM under setting [1] was not below 90%. As for `O=C(Cc1ccc2ccccc2c1)N1CCc2cnc(N3CCN(C4CCC4)CC3)nc2CC1` [Compound 522, 2-(4-cyclobutylpiperazin-1-yl)-7-(2-naphthylacetyl)-6,7,8,9-tetrahydro-5H-pyrimido[4,5-d]azepine], under setting [1], the inhibition at 4 µM was not below 90%.

For the compound `Cc1cc(C(C)N2CCc3c(ncnc3N3CCN(C4CCC4)CC3)C2)n(C)n1` (stereo not shown) [Compound 112, 4-(4-cyclobutylpiperazin-1-yl)-7-[1-(1,3-dimethyl-1H-pyrazol-5-yl)ethyl]-5,6,7,8-tetrahydropyrido[3,4-d]pyrimidine], the inhibition at 4 µM under setting [2] was not below 90%. For the compound `COc1ccc(OC)c(C(=O)N2CCc3cnc(N4CCN(C5CCC5)CC4)nc3CC2)c1` [Compound 423, 2-(4-cyclobutylpiperazin-1-yl)-7-(2,5-dimethoxybenzoyl)-6,7,8,9-tetrahydro-5H-pyrimido[4,5-d]azepine], the inhibition at 4 µM under setting [1] was not below 90%. Consider `Clc1ccc(CN2CCc3ncnc(N4CCN(C5CCC5)CC4)c3CC2)c(Cl)c1` [Compound 181, 4-(4-cyclobutylpiperazin-1-yl)-7-(2,4-dichlorobenzyl)-6,7,8,9-tetrahydro-5H-pyrimido[4,5-d]azepine], for which, under setting [2], the inhibition at 4 µM is not below 90%.

Regarding `CC(=O)c1ccc(N2CCc3cnc(N4CCN(C5CCC5)CC4)nc3CC2)cc1` [Compound 11, 1-{4-[2-(4-Cyclobutyl-piperazin-1-yl)-5,6,8,9-tetrahydro-pyrimido[4.5-d]azepin-7-yl]-phenyl}-ethanone], the inhibition at 4 µM (test compound 4 μM, 1 μM histamine, read-out: percent inhibition of agonist-induced GTP-gammaS binding to H3) was not below 90%. On to `c1ccc2ncc(CN3CCc4cnc(N5CCN(C6CCC6)CC5)nc4CC3)cc2c1` [Compound 237, 2-(4-cyclobutylpiperazin-1-yl)-7-(quinolin-3-ylmethyl)-6,7,8,9-tetrahydro-5H-pyrimido[4,5-d]azepine], for which the inhibition at 4 µM under setting [3] is not below 90%. On to `COc1ccc(C(=O)N2CCc3cnc(N4CCN(C5CCC5)CC4)nc3CC2)c(OC)c1` [Compound 431, 2-(4-cyclobutylpiperazin-1-yl)-7-(2,4-dimethoxybenzoyl)-6,7,8,9-tetrahydro-5H-pyrimido[4,5-d]azepine], for which the inhibition at 4 µM under setting [1] is not below 90%.

As usually defined, the inhibition is the relative decrease from the control value, in per cent.
